# Laboratory results from patent US8357811B2, “Crystalline forms of docetaxel and process for preparation thereof” (ScnioPharm Singapore PTE Ltd., priority 2006, dated 2013).
# Assay: Stability of crystalline anhydrous docetaxel and docetaxel trihydrate in solvents (FIG. 2)
# Assay type: physicochemical
# Details: for stability in co-water solvent: co-water solvent (ACN/water/acetic acid) vs non-water solvent
# From the text: FIG. 2 illustrates the stability of crystalline anhydrous docetaxel and docetaxel trihydrate.
SMILES,stability in acetonitrile compared with acetonitrile/water (9/1) (acetonitrile vs acetonitrile/water (9/1)),"stability compared with trihydrated form (1883-12-11, 1883-12-21, 2016-109-05) (in acetonitrile, FIG. 2)","stability compared with trihydrated form (see FIG. 2, solvent not stated at this place)",growth of 7-epi-docetaxel on addition of acetic acid (addition of acetic acid),stability in co-water solvent,stability in co-water solvent (listed as Docetaxel),generation of impurity 7-epi-docetaxel (co-water solvent vs non-water solvent)
"CC(=O)O[C@@]12CO[C@@H]1C[C@H](O)[C@@]1(C)C(=O)[C@H](O)C3=C(C)[C@@H](OC(=O)[C@H](O)[C@@H](NC(=O)OC(C)(C)C)c4ccccc4)C[C@@](O)([C@@H](OC(=O)c4ccccc4)[C@H]21)C3(C)C [anhydrous form of docetaxel, docetaxel]",more stable in acetonitrile than in acetonitrile/water (9/1),more stable,more stable than trihydrated form,,,,
CC(=O)O[C@@]12CO[C@@H]1C[C@H](O)[C@@]1(C)C(=O)[C@H](O)C3=C(C)[C@@H](OC(=O)[C@H](O)[C@@H](NC(=O)OC(C)(C)C)c4ccccc4)C[C@@](O)([C@@H](OC(=O)c4ccccc4)[C@H]21)C3(C)C [docetaxel],,,,can be suppressed by the addition of acetic acid,less stable in co-water solvent,more stable in non-water solvent than co-water solvent,generated more rapidly in co-water solvent than in non-water solvent
